Earlier results as cited in US20110105624A1, “ENDIPALENE FORMULATIONS IN THE TREATMENT OF PSORIASIS” (priority 2008, published 2011).

System: volunteers with psoriasis

SMILES: COc1c(OC)c(OC(C)=O)c2cc(Cl)ccc2c1OC(C)=O [Lonapalene, 6-chloro-2,3-dimethoxynaphtalendiacetate]
- clinical improvement in lesions (2% ointment, topical, compared with vehicle-treated sites): statistically significant clinical improvement
- side effects related to topical application (topical application): serious side effects
